From PubChem BioAssay AID2060888 (Molecular Pharmacology Branch, DTP, NCI, 2025)

System: 695427-040-R-J1-PDC complex spheroid viability
Test: Anticancer human tumor 695427-040-R-J1-PDC patient-derived colon adenocarcinoma cell line growth inhibition [RAS]
Conditions: for IC50: curve of first compound; for viability, T/C: stronger effect = lower value
Outline: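 Agents were tested in combination matrices in half-log decrements from a top concentration at or near clinical Cmax (10 microM if undetermined). Targets were multi-cell spheroids of tumour lines plus HUVEC and MSC stromal cells.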
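Further: viability read after seven days of drug exposure.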
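Wherever viability, T/C is given: 100% = DMSO vehicle control viability.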

`C=CC(=O)Nc1cc(Nc2nccc(-c3cn(C)c4ccccc34)n2)c(OC)cc1N(C)CCN(C)C` + C#Cc1c(F)ccc2cc(O)cc(-c3ncc4c(N5CC6CCC(C5)N6)nc(OCC56CCCN5CC(F)C6)nc4c3F)c12 was tested, and the IC50 (second compound 0.0316 µM) was 346 nM, the IC50 (second compound 0.1 µM) was 402 nM and the IC50 (second compound 0.316 µM) was 240 nM. For the same molecule, the IC50 (second compound 1 µM) was 165 nM, the IC50 (second compound 3.16 µM) was 50.7 nM and the IC50 (second compound 10 µM) was less than 3.16 nM. The viability, T/C (second compound 0.0316 µM, first compound 0.00316 µM) was 99.4%, the viability, T/C (second compound 0.0316 µM, first compound 0.01 µM) was 92.1% and the viability, T/C (second compound 0.0316 µM, first compound 0.0316 µM) was 92.3%. The viability, T/C (second compound 0.0316 µM, first compound 0.1 µM) was 69.6%, the viability, T/C (second compound 0.0316 µM, first compound 0.316 µM) was 53.1% and the viability, T/C (second compound 0.0316 µM, first compound 1 µM) was 31.5%. For the same molecule, the viability, T/C (second compound 0.1 µM, first compound 0.00316 µM) was 93.1%, the viability, T/C (second compound 0.1 µM, first compound 0.01 µM) was 100% and the viability, T/C (second compound 0.1 µM, first compound 0.0316 µM) was 80.9%. The viability, T/C (second compound 0.1 µM, first compound 0.1 µM) was 69.9%, the viability, T/C (second compound 0.1 µM, first compound 0.316 µM) was 58.6% and the viability, T/C (second compound 0.1 µM, first compound 1 µM) was 29.2%. For the same molecule, the viability, T/C (second compound 0.316 µM, first compound 0.00316 µM) was 95.8%, the viability, T/C (second compound 0.316 µM, first compound 0.01 µM) was 81% and the viability, T/C (second compound 0.316 µM, first compound 0.0316 µM) was 77.8%. It also gave a viability, T/C (second compound 0.316 µM, first compound 0.1 µM) of 61.5%, a viability, T/C (second compound 0.316 µM, first compound 0.316 µM) of 48.1% and a viability, T/C (second compound 0.316 µM, first compound 1 µM) of 27.6%. The viability, T/C (second compound 1 µM, first compound 0.00316 µM) was 72.6%, the viability, T/C (second compound 1 µM, first compound 0.01 µM) was 79.7% and the viability, T/C (second compound 1 µM, first compound 0.0316 µM) was 68.9%. The viability, T/C (second compound 1 µM, first compound 0.1 µM) was 59%, the viability, T/C (second compound 1 µM, first compound 0.316 µM) was 38.7% and the viability, T/C (second compound 1 µM, first compound 1 µM) was 23%. The viability, T/C (second compound 3.16 µM, first compound 0.00316 µM) was 57.7%, the viability, T/C (second compound 3.16 µM, first compound 0.01 µM) was 55.1% and the viability, T/C (second compound 3.16 µM, first compound 0.0316 µM) was 56.6%. It also gave a viability, T/C (second compound 3.16 µM, first compound 0.1 µM) of 42.6%, a viability, T/C (second compound 3.16 µM, first compound 0.316 µM) of 30.6% and a viability, T/C (second compound 3.16 µM, first compound 1 µM) of 20%. It also gave a viability, T/C (second compound 10 µM, first compound 0.00316 µM) of 39.4%, a viability, T/C (second compound 10 µM, first compound 0.01 µM) of 41.5% and a viability, T/C (second compound 10 µM, first compound 0.0316 µM) of 37.3%. The viability, T/C (second compound 10 µM, first compound 0.1 µM) was 32.4%, the viability, T/C (second compound 10 µM, first compound 0.316 µM) was 25.8% and the viability, T/C (second compound 10 µM, first compound 1 µM) was 15.7%.
Molecule `NC1c2ccccc2OC12CCN(c1cnc3c(N4CCCc5ncccc54)n[nH]c3n1)CC2` (centres undefined) + CCn1c(-c2cc(N3CCN(C)CC3)cnc2C(C)OC)c2c3cc(ccc31)-c1csc(n1)CC(NC(=O)C1CC1C)C(=O)N1CCCC(N1)C(=O)OCC(C)(C)C2 has an IC50 (second compound 0.000949 µM) of 375 nM, an IC50 (second compound 0.003 µM) of 209 nM and an IC50 (second compound 0.00949 µM) of 72 nM. It also gave an IC50 (second compound 0.03 µM) of less than 31.6 nM, an IC50 (second compound 0.0949 µM) of less than 31.6 nM and an IC50 (second compound 0.3 µM) of less than 31.6 nM. For the same molecule, the viability, T/C (second compound 0.000949 µM, first compound 0.0316 µM) was 74.8%, the viability, T/C (second compound 0.000949 µM, first compound 0.1 µM) was 70.1% and the viability, T/C (second compound 0.000949 µM, first compound 0.316 µM) was 53.9%. It also gave a viability, T/C (second compound 0.000949 µM, first compound 1 µM) of 29.2%, a viability, T/C (second compound 0.000949 µM, first compound 3.16 µM) of 32.4% and a viability, T/C (second compound 0.000949 µM, first compound 10 µM) of 24.9%. For the same molecule, the viability, T/C (second compound 0.003 µM, first compound 0.0316 µM) was 73.9%, the viability, T/C (second compound 0.003 µM, first compound 0.1 µM) was 59.2% and the viability, T/C (second compound 0.003 µM, first compound 0.316 µM) was 47%. The viability, T/C (second compound 0.003 µM, first compound 1 µM) was 24.4%, the viability, T/C (second compound 0.003 µM, first compound 3.16 µM) was 23.5% and the viability, T/C (second compound 0.003 µM, first compound 10 µM) was 20.5%. It also gave a viability, T/C (second compound 0.00949 µM, first compound 0.0316 µM) of 62.2%, a viability, T/C (second compound 0.00949 µM, first compound 0.1 µM) of 45.3% and a viability, T/C (second compound 0.00949 µM, first compound 0.316 µM) of 22.5%. It also gave a viability, T/C (second compound 0.00949 µM, first compound 1 µM) of 25.1%, a viability, T/C (second compound 0.00949 µM, first compound 3.16 µM) of 18.2% and a viability, T/C (second compound 0.00949 µM, first compound 10 µM) of 15.8%. The viability, T/C (second compound 0.03 µM, first compound 0.0316 µM) was 45.4%, the viability, T/C (second compound 0.03 µM, first compound 0.1 µM) was 36% and the viability, T/C (second compound 0.03 µM, first compound 0.316 µM) was 27.9%. For the same molecule, the viability, T/C (second compound 0.03 µM, first compound 1 µM) was 21.1%, the viability, T/C (second compound 0.03 µM, first compound 3.16 µM) was 13.2% and the viability, T/C (second compound 0.03 µM, first compound 10 µM) was 16.8%. For the same molecule, the viability, T/C (second compound 0.0949 µM, first compound 0.0316 µM) was 39.2%, the viability, T/C (second compound 0.0949 µM, first compound 0.1 µM) was 27.3% and the viability, T/C (second compound 0.0949 µM, first compound 0.316 µM) was 22.3%. It also gave a viability, T/C (second compound 0.0949 µM, first compound 1 µM) of 15.2%, a viability, T/C (second compound 0.0949 µM, first compound 3.16 µM) of 14.1% and a viability, T/C (second compound 0.0949 µM, first compound 10 µM) of 13.1%. The viability, T/C (second compound 0.3 µM, first compound 0.0316 µM) was 27.5%, the viability, T/C (second compound 0.3 µM, first compound 0.1 µM) was 27% and the viability, T/C (second compound 0.3 µM, first compound 0.316 µM) was 20.7%. The viability, T/C (second compound 0.3 µM, first compound 1 µM) was 14.5%, the viability, T/C (second compound 0.3 µM, first compound 3.16 µM) was 10.2% and the viability, T/C (second compound 0.3 µM, first compound 10 µM) was 15.5%.
